Experimental data: US20260009064A1, “STEROL PRODUCTION IN YEAST” (APIX BIOSCIENCES, priority 2021, published 2026)

Test system: managed honeybee colonies
Assay: Artificial diets with dried engineered yeast powder fed to managed honeybee colonies (APIDEA hives, three months)
Format: in vivo
Conditions: inferred from platform strain diet versus wild-type yeast diet
Experimental: Yeast strains ST4842 (wild-type, containing ergosterol), ST11005 (platform strain engineered to produce tetrahymanol, containing ergosterol and tetrahymanol) and ST12178 (mixed sterol producing strain producing desired phytosterols and tetrahymanol) were cultivated by 5-L fed-batch fermentation as described above. At the end of fermentation, the yeast biomass was recovered from the culture by centrifugation (4000×g, 20 min) and washed with deionized water. The biomass was heat-inactivated and dried (60° C. for a minimum of 24 h). The dried material was ground to a fine powder and stored at −20° C. until further use.
The yeast biomass was then incorporated at 20% w/w into a holidic diet designed to provide additional protein, lipid, sugar, vitamins and minerals. […]
Honeybee colonies were maintained for three months in APIDEA hives (Styrofoam queen mating mini nucleus hives, (Paynes Southdown Bee Farms Ltd, West Sussex. UK) made up of one brood box with five frames and a top feeder with a hole for petty delivery. Hives were maintained within a closed glasshouse environment designed to negate bee escape. Hives were distributed across two rooms of the glasshouse, with varying orientation. Feeders with 30% w/v sugar solution and water were distributed inside the glasshouse and replenished as required. Regular temperature and humidity measurements were recorded on a datalogger. […]

CC1(C)CCC[C@]2(C)[C@H]3CC[C@@H]4[C@@]5(C)CC[C@H](O)C(C)(C)[C@@H]5CC[C@@]4(C)[C@]3(C)CC[C@@H]12 [tetrahymanol]
adverse effects in honeybee colonies: does not have adverse effects
